What is called pKa is the negative logarithm of the acid dissociation constant.

Each structure is given as a SMILES string.

Data set [1] can be described thus: Particle size and polydispersity index of nanoparticle compositions (Zetasizer Nano ZS). Type of data set: physicochemical. The note with it: Table 1A; for Size (nm): lipid:DSPC:cholesterol:PEG-DMG 50:10:38.5:1.5 mol %. The procedure, abridged:
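In 1×PBS, the compositions were sized on a Zetasizer Nano ZS, which also reported their polydispersity index.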

The subject of another data set is IL-6, IP-10. The experiment in a line: Cytokine induction in mice upon intravenous administration. Type of data set: in vivo. On the set-up: Cytokine induction IL-6 / Cytokine induction IP-10: unit not given here. The note with it: 0.5 mpk, 6 hours. The source says: The introduction of foreign material into a mammalian body induces an innate immune response that promotes cytokine production. Such immune responses to, for example, nanoparticle compositions including therapeutic and/or prophylactics, are undesirable. The induction of certain cytokines is thus measured to evaluate the […] of nanoparticle compositions. The concentrations of various cytokines in mice upon intravenous administration of nanoparticle compositions presented in Table 1A at a dosage of 0.5 mpk was measured at 6 hours. The standard MC3 formulation and a PBS control were also tested. As is evident in Table 7, IL-6 induction was highest for compositions including Compounds 1, 3, 9, 19, and 26, while IP-10 induction was highest for compositions including Compounds 3, 4, 7, 20, and 26. IL-6 induction was lowest for compositions including Compounds 4, 11, 12, and 28. IP-10 induction was lowest for compositions including Compounds 10, 11, 12, 13, 15, 17, and 18.

The nature of data set [2]: Encapsulation efficiency of RNA (QUANT-IT RIBOGREEN RNA assay). Type of data set: physicochemical. The note with it: Table 1A. The gist of the method: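 RiboGreen fluorescence (ex ~480, em ~520 nm) compared between intact samples and Triton X-100-lysed samples after 15 min at 37 °C in TE buffer, pH 7.5. Percent free RNA is the blank-corrected intact/disrupted ratio.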

Data set [3] can be described thus: Apparent (surface) pKa of the LNP formulation (TNS assay). The note with it: for pKa: Table 1A. The format is physicochemical. The gist of the method: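 LNP (0.04 mg/mL mRNA) mixed with TNS reagent in 21 buffers spanning about pH 3-12, in triplicate; fluorescence plotted against pH as sigmoidal curve. Apparent pKa taken as […] curve inflection point; validated in 1× PBS and 20 mM Tris w/8% sucrose.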

Data set [4] concerns luciferase (Luc) mRNA. The experiment in a line: Luc expression, whole body bioluminescence after intravenous administration to mice. Type of data set: in vivo. The note with it: for Fold increase in total body Luc Flux relative to MC3 at 6 h: Table 3A, i.v. administration; for Total Flux 3 hours / Total Flux 6 hours / Total Flux 24 hours / total flux at 3 hours: mice, i.v., 0.5 mg/kg; for Total Flux 3 hours / Total Flux 6 hours / Total Flux 24 hours: Luc mRNA; for total flux at 3 hours: comparison in words. The procedure, abridged:
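Luc mRNA nanoparticle formulations given intravenously to mice (n=6) at 0.5 mg/kg; whole-body bioluminescence imaged at 3, 6 and 24 h. CD-1 mice received IP D-luciferin (200 μL of 15 mg/mL) 15 min before imaging; total flux quantified by region of interest.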

Data set [5] deals with luciferase (Luc) mRNA. The experiment in a line: Luc expression in liver, lung, spleen and femur 6 hours after intravenous administration. Type of data set: in vivo. Conditions: mice, 0.5 mpk; for Total Flux Liver / Total Flux Lung / Total Flux Spleen: intravenous. The procedure, abridged:
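LNP-formulated mRNA given IV to mice (n=3) at 0.5 mpk; at 6 h, bioluminescence imaged ex vivo 15 min after IP D-luciferin (15 mg/mL, 200 μL), organs imaged within 25 min. Values are total flux by region of interest.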

For data set [6], the system named is luciferase (Luc) mRNA. Nature of the data set: Luc expression (total flux) after intramuscular administration. Type of data set: in vivo, mice. Conditions: for Total flux, 0.001 mpk Dose / Total flux, 0.01 mpk Dose: 6 hours after intramuscular administration, Luc mRNA and H10 mRNA; for AUC (p/s * h) / Lipid/MC3 AUC: Table 3H, intramuscular, Luc. The protocol: In order to monitor how effectively various nanoparticle compositions deliver therapeutic and/or prophylactics to targeted cells, different nanoparticle compositions including a particular therapeutic and/or prophylactic (for example, a modified or naturally occurring RNA such as an mRNA) are prepared and administered to rodent populations. Mice are intravenously, intramuscularly, intraarterially, or intratumorally administered a single dose including a nanoparticle composition with a formulation such as those provided in Example 3. In some instances, mice may be made to inhale doses. Dose sizes may range from 0.001 mg/kg to 10 mg/kg, where 10 mg/kg describes a dose including 10 mg of a therapeutic and/or prophylactic in a nanoparticle composition for each 1 kg of body mass of the mouse. A control composition including PBS may also be employed.
Sample formulations including both modified luciferase (Luc) mRNA and H10 mRNA were prepared and administered intramuscularly and the resulting expression and immunogenicity were evaluated simultaneously. Formulations including compounds according to Formula (I), (IA), (IB), (II), (IIa), (IIb), (IIc), (IId), (IIe), (IIf), (IIg), (III), (VI), (VI-a), (VII), (VIII), (VIIa), (VIIIa), (VIIIb), (VIIb-1), (VIIb-2), (VIIb-3), (VIIc), (VIId), (VIIIc), or (VIIId) were prepared and administered at doses of 0.001 and 0.01 mpk (e.g., doses of 0.0005 mpk of a formulation including Luc mRNA and a formulation including H10 mRNA or doses of 0.005 mpk of a formulation including Luc mRNA and a formulation including H10 mRNA).
Sample formulations including modified luciferase (Luc) mRNA prepared and administered intramuscularly and the resulting expression and immunogenicity were evaluated simultaneously. Formulations including compounds according to Formula (I), (IA), (IB), (II), (IIa), (IIb), (IIc), (IId), (IIe), (IIf), (IIg), (III), (VI), (VI-a), (VII), (VIII), (VIIa), (VIIIa), (VIIIb), (VIIb-1), (VIIb-2), (VIIb-3), (VIIc), (VIId), (VIIIc), or (VIIId) were prepared and administered at dose of and 0.01 mpk.

For `CCCCCCCCC(CCCCCCCC)OC(=O)CCCCCCCN(CCO)CCCCCCCC` [Compound 4, Heptadecan-9-yl 8-((2-hydroxyethyl)(octyl)amino)octanoate], in data set [1], the PDI turned out to be 0.21 and the “Size (nm)” value is recorded as 120.5 nm. For the same molecule, in the data set on IL-6, IP-10 (i.v., in words), the IL-6 induction result is “lowest” and the IP-10 induction entry is given as “highest”. Moreover, in the data set with IL-6, IP-10 (intravenous), the “Cytokine induction IL-6” value was 13.1375 and the “Cytokine induction IP-10” value is listed as 2253.09. Moreover, in data set [2], the “EE (%)” value is on record as 95.10%. The pKa in data set [3] was determined as 6.33. For the same molecule, in the data set on luciferase (Luc) mRNA [4], the “Fold increase in total body Luc Flux relative to MC3 at 6 h” value stood at 1.31, the “Total Flux 3 hours” value was 1.37E+11, the “Total Flux 6 hours” value came to 6.01E+10 and the “Total Flux 24 hours” value is 1.13E+09. Moreover, in the data set with luciferase (Luc) mRNA [4], the “total flux at 3 hours” value is recorded as “highest”. For the same molecule, the “Flux in the spleen” value in the data set with luciferase (Luc) mRNA [5] (i.v., in words) is “highest”. In addition, in the data set with luciferase (Luc) mRNA [5], the “Total Flux Liver” value worked out at 5.26E+09, the “Total Flux Lung” value was 6.22E+07 and the “Total Flux Spleen” value stood at 4.09E+08.

For the molecule `CCCCCCCCCOC(=O)CCCCCCCN(CCO)CCCCCCCC(=O)OC(CCCCCC)CCCCCCCC` (stereo not drawn) [Compound 32, nonyl 8-((2-hydroxyethyl)(8-oxo-8-(pentadecan-7-yloxy)octyl)amino) octanoate], in data set [1], the PDI stood at 0.18 and the “Size (nm)” value turned out to be 105.6 nm. In data set [2], the “EE (%)” value came out at 94.87%. For the same molecule, the pKa in data set [3] was found to be 6.75. Besides, in the data set on luciferase (Luc) mRNA [4], the “Fold increase in total body Luc Flux relative to MC3 at 6 h” value was found to be 1.39, the “Total Flux 3 hours” value is on record as 8.65E+10, the “Total Flux 6 hours” value amounted to 6.08E+10 and the “Total Flux 24 hours” value was 1.92E+09. In addition, the “total flux at 3 hours” value in the data set with luciferase (Luc) mRNA [4] is given as “highest”. Also, in the data set with luciferase (Luc) mRNA [6], the “Total flux, 0.001 mpk Dose” value amounted to 7.37E+05 p/s and the “Total flux, 0.01 mpk Dose” value is reported as 1.03E+07 p/s. Further, in the data set with luciferase (Luc) mRNA [5], the “Total Flux Liver” value was found to be 8.52E+09, the “Total Flux Lung” value worked out at 1.16E+07 and the “Total Flux Spleen” value is 1.70E+08.

On to `CCCCCCCCCOC(=O)CCCCCCCN(CCO)CCCCCCCC(=O)OC(CC)CCCCCCCC` (stereo not drawn) [Compound 35, nonyl 8-((2-hydroxyethyl)(8-oxo-8-(undecan-3-yloxy)octyl)amino) octanoate], for which, in data set [1], the PDI turned out to be 0.18 and the “Size (nm)” value was found to be 151.1 nm. In addition, the “EE (%)” value in data set [2] is 90.82%. The pKa in data set [3] is listed as 6.85. Besides, in the data set with luciferase (Luc) mRNA [4], the “Fold increase in total body Luc Flux relative to MC3 at 6 h” value stood at 0.028, the “Total Flux 3 hours” value was determined as 9.82E+08, the “Total Flux 6 hours” value was found to be 1.24E+09 and the “Total Flux 24 hours” value stood at 5.09E+07. Further, in the data set with luciferase (Luc) mRNA [6], the “Total flux, 0.001 mpk Dose” value is listed as 2.45E+06 p/s and the “Total flux, 0.01 mpk Dose” value is listed as 8.12E+06 p/s. Besides, in the data set on luciferase (Luc) mRNA [5], the “Total Flux Liver” value is recorded as 1.63E+08, the “Total Flux Lung” value is 2.06E+06 and the “Total Flux Spleen” value came to 1.23E+08.

With `CCCCCCCCC(CCCCCCCC)OC(=O)CCCCCCCN(CCO)CCCC(=O)OC(CCCCC)CCCCCCCC` (stereo not drawn) [Compound 71, Heptadecan-9-yl 8-((2-hydroxyethyl)(4-oxo-4-(tetradecan-6-yloxy)butyl)amino)octanoate], in data set [1], the PDI came out at 0.24 and the “Size (nm)” value was 71 nm. Also, the “EE (%)” value in data set [2] stood at 97.54%. In addition, the pKa in data set [3] turned out to be 5.88. Besides, in the data set on luciferase (Luc) mRNA [4], the “Fold increase in total body Luc Flux relative to MC3 at 6 h” value worked out at 0.418, the “Total Flux 3 hours” value is listed as 4.09E+09, the “Total Flux 6 hours” value is listed as 9.28E+09 and the “Total Flux 24 hours” value stood at 6.51E+07. Moreover, in the data set on luciferase (Luc) mRNA [6], the “AUC (p/s * h)” value came out at 6.61E+07 p/s * h and the “Lipid/MC3 AUC” value amounted to 0.11. Further, in the data set with luciferase (Luc) mRNA [5], the “Total Flux Liver” value is listed as 7.93E+08, the “Total Flux Lung” value was 4.86E+06 and the “Total Flux Spleen” value was found to be 8.04E+06.

`CCCCCCCCCOC(=O)CCCCCCCN(CCCCCCCC(=O)OC(CCCCCCCC)CCCCCCCC)C(CO)CO` [Compound 156, Heptadecan-9-yl 8-((1,3-dihydroxypropan-2-yl)(8-(nonyloxy)-8-oxooctyl)amino)octanoate]: in data set [1], the PDI is on record as 0.11 and the “Size (nm)” value was 68.1 nm. Besides, the “EE (%)” value in data set [2] was 98.47%. The pKa in data set [3] is 6.572. For the same molecule, in data set [3] (Table 3F), the “App. pKa” value is recorded as 6.57. Further, the “Lipid/MC3 AUC” value in the data set with luciferase (Luc) mRNA [4] (Table 3D, intravenous) is reported as 0.61. Moreover, the “AUC (p/s * h)” value in the data set with luciferase (Luc) mRNA [4] (Table 3D, intravenous, Luc) turned out to be 1.170E+011 p/s * h. Besides, in the data set on luciferase (Luc) mRNA [4], the “Total Flux 3 hours” value is 5.68E+09, the “Total Flux 6 hours” value is listed as 1.03E+10 and the “Total Flux 24 hours” value was found to be 6.53E+07. Further, in the data set with luciferase (Luc) mRNA [6], the “AUC (p/s * h)” value is 3.92E+07 p/s * h and the “Lipid/MC3 AUC” value came to 0.07. For the same molecule, in the data set with luciferase (Luc) mRNA [5], the “Total Flux Liver” value was found to be 6.51E+08, the “Total Flux Lung” value turned out to be 1.92E+06 and the “Total Flux Spleen” value was determined as 1.82E+07.

Regarding `CCCCCCCCCN(CCCCCCCC(=O)OC(CCCCCCCC)CCCCCCCC)CCCn1ccnc1` [Compound 8, Heptadecan-9-yl 8-((3-(1H-imidazol-1-yl)propyl)(nonyl)amino)octanoate], in data set [1], the PDI is 0.15 and the “Size (nm)” value is given as 121.0 nm. Also, the “EE (%)” value in data set [2] is 95.8%. In data set [3], the pKa was 6.64. Moreover, in the data set on luciferase (Luc) mRNA [4], the “Total Flux 3 hours” value was found to be 7.43E+09, the “Total Flux 6 hours” value amounted to 6.71E+09 and the “Total Flux 24 hours” value was 7.84E+08. For the same molecule, in the data set with luciferase (Luc) mRNA [6], the “Total flux, 0.001 mpk Dose” value amounted to 7.81E+05 p/s and the “Total flux, 0.01 mpk Dose” value turned out to be 3.32E+06 p/s. In the data set on luciferase (Luc) mRNA [5], the “Total Flux Liver” value was 7.87E+08, the “Total Flux Lung” value stood at 4.06E+06 and the “Total Flux Spleen” value was determined as 1.51E+08.
